Read-outs that look alike come from different tables or passages of the source.
Columns and labels:
[1] = system: RAW264.7 macrophage cells; assay: MTT assay for cell viability; settings: RAW 264.7 cells, LPS-stimulated
Method: (§1) To obtain plant-derived inhibitors of NO as potential lead compounds for treating inflammation disorders, monoterpene constituents 1–6 isolated from the fruits of A. tsao-ko were assayed to determine their inhibitory activities on LPS-induced NO production in murine macrophage RAW 264.7 cells via the Griess reaction assay, as described previously.
(§2) Mouse RAW264.7 macrophage cells (TIB-71) were maintained in Dulbecco’s modified Eagle medium (DMEM) supplemented with 10% fetal bovine serum (FBS), 100 U/mL penicillin, and 0.1 mg/mL streptomycin in a humidified incubator with 5% CO2 at 37 °C.
(§3) The Griess reaction was performed to measure the concentration of nitrite in the medium as an indicator of NO production. RAW264.7 macrophage cells were cultured in a 96-well plate after seeding at a density of 4 × 10^5 cells/well for 24 h in DMEM supplemented with 10% FBS, and stimulated with or without LPS (1 μg/mL, Sigma Aldrich, St. Louis, MO, USA) in the presence or absence of the compounds. After 24 h of incubation at 37 °C, 5% CO2, the cell supernatant was reacted with equal volumes of Griess reagent solutions to determine nitrite production. Absorbance was measured with a microplate reader (Molecular Devices, Sanjose, CA, USA) at 540 nm. Cell viability was confirmed via MTT (Duchefa Biochemie, Haarlem, The Netherlands) assay. The supernatant was removed and medium containing MTT solution (5 mg/mL in phosphate-buffered saline) was added to each well and incubated for 2 h. The medium was removed, and 100 μL of dimethyl sulfoxide (Duchefa Biochemie, Haarlem, The Netherlands) was added to each well to dissolve the purple formazan product to obtain a colored solution. Absorbance was measured at 540 nm with a microplate reader.

[2] = system: LPS-induced NO production in RAW 264.7 cells; assay: LPS-induced NO production, Griess reaction assay; type: cell-based, mouse; settings: read-out: IC50, inhibition of LPS-induced NO production
Method: as §1, §2, §3

iNOS protein expression = assay: Western blot analysis of iNOS protein expression in LPS-stimulated RAW264.7 cells; type: cell-based, mouse; settings: pretreatment 10, 50, 100 μM for 1 h, then LPS 1 μg/mL 24 h
Source text: L-Arginine-derived NO is an intracellular signaling molecule formed in mammalian cells by different three isoforms of nitric oxide synthase (NOS). The isozymes are referred to as neuronal NOS (nNOS or NOS I), inducible NOS (iNOS or NOS II), and an endothelial NOS (eNOS or NOS III). Excessive generation of NO by iNOS is seen in inflammatory diseases such as autoimmune and chronic inflammatory disorders. To examine the mechanism of NO inhibition by active compound 4, we evaluated iNOS protein expression via western blotting.
Figure 2 Effects of (1R,4S,6S)-1,6-dihydroxy-2-menthene (compound 4) on iNOS protein and pro-inflammatory cytokine mRNA expression in LPS-stimulated RAW264.7 cells. […] (C,D) Levels of iNOS, IL-1β, and IL-6 mRNAs were determined via RT-PCR. RT-PCR data results were expressed as the fold of changes of the target gene (iNOS, IL-1β, and IL-6) and normalized to the GAPDH. […]
RAW264.7 cells, plated in 6-well plates (1 × 10^6 cells/well), were treated with compound 4 (10, 50, and 100 μM). […] Protein expression was analyzed via immunoblotting with antibodies against anti-iNOS (cat. no. ab3523; dilution, 1:500, Abcam, Cambridge, UK) and β-actin (cat. no. 5125; dilution, 1:1000, Cell Signaling Technology, Danvers, MA, USA). […] The bands of interest were quantified using the imageJ software.

IL-1β mRNA = assay: RT-PCR of IL-1β mRNA in LPS-stimulated RAW264.7 cells; type: cell-based, mouse; settings: 10, 50, 100 μM for 1 h, then LPS 1 μg/mL 24 h, normalized to GAPDH
Method: (§4) Figure 2 Effects of (1R,4S,6S)-1,6-dihydroxy-2-menthene (compound 4) on iNOS protein and pro-inflammatory cytokine mRNA expression in LPS-stimulated RAW264.7 cells. RAW264.7 cells were pretreated with different concentrations (10, 50, 100 μM) of compound 4 for 1 h, and then stimulated with 1 µg/mL LPS for 24 h. (A,B) Western blot analysis of iNOS expression in cells treated with compound 4 (10, 50, 100 μM). β-Actin was used as a loading control. (C,D) Levels of iNOS, IL-1β, and IL-6 mRNAs were determined via RT-PCR. RT-PCR data results were expressed as the fold of changes of the target gene (iNOS, IL-1β, and IL-6) and normalized to the GAPDH. Values represent the mean ± SD of three independent experiments. […]
(§5) Next, we confirmed the effect of compound 4 on the expression of inflammatory factors, i.e., iNOS, IL-1β, and IL-6 in LPS-stimulated RAW264.7 cells. […] We measured the levels of the relevant mRNAs via reverse transcription polymerase chain reaction (RT-PCR). […]
(§6) RAW264.7 cells, plated in 6-well plates (1 × 10^6 cells/well), were treated with compound 4 (10, 50, and 100 μM) for 1 h prior to LPS, and stimulated with 1 μg/mL LPS or remained unstimulated for 24 h. […] The bands of interest were quantified using the ChemiDoc XRS system and Quantity One software (Bio-Rad Laboratories, Hercules, CA, USA).

IL-6 mRNA = assay: RT-PCR of IL-6 mRNA in LPS-stimulated RAW264.7 cells; type: cell-based, mouse; settings: 10, 50, 100 μM for 1 h, then LPS 1 μg/mL 24 h, normalized to GAPDH
Method: as §4, §5, §6

iNOS mRNA = assay: RT-PCR of iNOS mRNA in LPS-stimulated RAW264.7 cells; type: cell-based, mouse; settings: 10, 50, 100 μM for 1 h, then LPS 1 μg/mL 24 h, normalized to GAPDH
Method: as §4, §5, §6

[3] = Mus musculus, RAW264.7, RAW 264.7 cells, LPS 1 μg/mL, 24 h, Griess reagent

| Compound | IC50 [2, 3] | MTT (cell viability) [1] | also measured |
| --- | --- | --- | --- |
| CC(=O)O.CNC(=N)NCCC[C@H](N)C(=O)O [NG-methyl-L-arginine acetate, reference compound] |  | >100 µM | IC50 ([2]; RAW 264.7 cells, LPS 1 μg/mL, 24 h, Griess reagent): 34.2 µM |
| CC1=C[C@@H](O)[C@H](C(C)C)C[C@H]1O [Compound 2, (3S,4S,6R)-3,6-dihydroxy-1-menthene] | > 100 µM | >100 µM |  |
| CC(C)[C@H]1C=C[C@@](C)(O)[C@@H](O)C1 [Compound 4, (1R,4S,6S)-1,6-dihydroxy-2-menthene] | 82.5 µM | >100 µM | iNOS protein expression (iNOS protein expression): significantly and dose-dependently inhibited iNOS expression; IL-1β mRNA level (IL-1β mRNA): reduced; IL-6 mRNA level (IL-6 mRNA): reduced; iNOS mRNA expression (iNOS mRNA): decreased the iNOS expression at the mRNA level, in a dose-dependent manner |
| C/C(C=O)=C\CC/C(C)=C/CO [Compound 6, 8-oxogeraniol] | > 100 µM | >100 µM |  |
| O=CC1=CC[C@@H](O)[C@H]2CCC[C@@H]12 [Compound 1, tsaokoin] |  | >100 µM | IC50 ([2]; Mus musculus, RAW264.7, 24 h): > 100 µM |

More lines, main results first:

| IC50 [2, 3] | Compound | MTT (cell viability) [1] | also measured |
| --- | --- | --- | --- |
| > 100 µM | C=C(C)[C@H]1CC[C@@](C)(O)C[C@@H]1O [Compound 3, (1R,3S,4R)-3-hydroxy isopulegol] | >100 µM |  |
| > 100 µM | CC(=CCO)CCCC(C)CO (stereo not drawn) [Compound 5, 3,7-dimethyl-2-octene-1,8-diol] | >100 µM |  |

From article PMC7911220, “Monoterpenoids from the Fruits of Amomum tsao-ko Have Inhibitory Effects on Nitric Oxide Production” (Plants, 2021)
